{"source": "paper PMC12749166", "about": "“Fragment-based drug design of a bacterial kinase inhibitor capable of increasing the antibiotic sensitivity of clinical isolates” (Communications Chemistry, 2025)", "key": {"APH(2”)-IVa [1]": {"tested_on": "APH(2”)-IVa", "set-up": "method as in PMID 19158087", "conditions": "read-out: Michaelis constant (Km) for ATP; cited from earlier work"}, "APH(3’)-IIb": {"tested_on": "APH(3’)-IIb", "set-up": "method as in earlier work", "conditions": "read-out: Michaelis constant (Km) for ATP; cited from earlier work"}, "APH(3’)-IIa": {"tested_on": "APH(3’)-IIa", "conditions": "read-out: Michaelis constant (Km) for ATP; cited from earlier work"}, "APH(9)-Ia": {"biological_target": "APH(9)-Ia", "set-up": "method as in PMID 21573013, PMID 15388945", "conditions": "read-out: Inhibition constant; cited from earlier work"}, "APH(3’)-IIIa [2]": {"biological_target": "APH(3’)-IIIa", "set-up": "method as in PMID 21573013, PMID 15388945", "conditions": "read-out: Inhibition constant; cited from earlier work"}, "[3]": {"tested_on": "resistant hyper-permeable efflux mutant of E. coli (ΔtolC ΔbamB)", "conditions": "cited from earlier work"}, "APH(3’)-Ia": {"biological_target": "APH(3’)-Ia", "set-up": "method as in PMID 23758273", "conditions": "read-out: Inhibition constant; cited from earlier work"}, "APH(2”)-IVa [4]": {"biological_target": "T1, APH(2”)-IVa (Enterococcus casseliflavus, UniProt O68183)", "T1 sequence (O68183 1-301)": "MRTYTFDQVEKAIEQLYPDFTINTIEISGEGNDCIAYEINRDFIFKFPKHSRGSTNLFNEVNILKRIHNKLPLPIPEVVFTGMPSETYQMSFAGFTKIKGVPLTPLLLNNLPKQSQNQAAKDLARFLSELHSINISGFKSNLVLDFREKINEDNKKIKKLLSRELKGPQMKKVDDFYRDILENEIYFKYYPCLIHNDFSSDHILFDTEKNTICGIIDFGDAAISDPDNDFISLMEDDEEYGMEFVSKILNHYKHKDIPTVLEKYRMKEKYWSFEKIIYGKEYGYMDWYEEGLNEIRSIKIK", "experiment": "biochemical", "assay_type": "binding", "conditions": "read-out: ΔTm (°C)", "protocol": "Thermal shift assays were performed using an RTqPCR machine Mx3005P (Stratagene) in 96-well plates (Thermo-Fast low Profile, ThermoScientific) by mixing the protein at 5 µM, SYPRO® Orange (Sigma Aldrich) at […], and fragments at 500 µM. Fluorescence was followed with Cy3 and SYAL filters. Denaturation curves were collected using MxPro-Mx3005P v4.10 software and analyzed using the implemented version of wTSA-CRAFT[36]."}, "APH(2”)-IVa [5]": {"biological_target": "T1, APH(2”)-IVa"}, "APH(2”)-IVa [6]": {"biological_target": "T1, APH(2”)-IVa", "experiment": "biochemical", "conditions": "Ki (µM), inhibition constant, ATP-competitive; 0-2 mM MgATP, 100 µM kanamycin A, global fitting"}, "APH(2”)-IVa [7]": {"biological_target": "T1, APH(2”)-IVa", "experiment": "biochemical", "assay_type": "binding", "protocol": "ITC experiments were performed on three different machines: a MicroCal VP-ITC (GE Healthcare), a MicroCal PEAQ-ITC (Malvern), or a MicroCal iTC200 (Malvern). The architecture and principles are similar for the three different systems. The experiments were carried out in Buffer HEPES at 25 °C. Titrations consisted of twenty injections of 1.5 µL inhibitors, every 120 seconds, into the measuring cell using the injection syringe rotating at 750 rpm. The data were analyzed using the MicroCal PEAQ-ITC software (v. 1.52, Malvern) using the single-site binding model to fit the raw data. The standard error of the Kd value was determined from measurements made on distinct samples (n indicated in the text)."}, "12 different APHs": {"biological_target": "12 different APHs", "set-up": "method as in PMID 23758273", "conditions": "all the APHs tested; cited from earlier work"}, "APH(2”)-Ib": {"tested_on": "APH(2”)-Ib", "set-up": "method as in PMID 11514228", "conditions": "at 1 mM; cited from earlier work"}, "APH(3’)-IIIa [8]": {"tested_on": "APH(3’)-IIIa", "set-up": "method as in PMID 11514228", "conditions": "cited from earlier work"}}, "note": "Read-outs that look alike come from different tables or passages of the source."}
{"compound": "Nc1ncnc2c1ncn2[C@@H]1O[C@H](COP(=O)(O)OP(=O)(O)OP(=O)(O)O)[C@@H](O)[C@H]1O", "note": "[ATP, adenosine 5’-triphosphate]", "values": [{"measurement": "Km", "setting": "APH(2”)-IVa [1]", "result": 101, "unit": "µM"}, {"measurement": "Km", "setting": "APH(3’)-IIb", "result": 24, "unit": "µM"}, {"measurement": "Km", "setting": "APH(3’)-IIa", "result": 45, "unit": "µM"}]}
{"compound": "NCCNS(=O)(=O)c1ccc(Cl)c2ccncc12", "note": "[CKI-7]", "values": [{"measurement": "Ki", "setting": "APH(9)-Ia", "result": 159, "unit": "µM"}, {"measurement": "Ki", "setting": "APH(3’)-IIIa [2]", "result": 66, "unit": "µM"}]}
{"compound": "CC(C)(C)n1nc(-c2cccc3ccccc23)c2c(N)ncnc21", "note": "[Compound 1-NA-PP1]", "values": [{"measurement": "Rescue activity of kanamycin A", "setting": "[3]", "result": "demonstrated rescue activity of kanamycin A"}, {"measurement": "Ki", "setting": "APH(3’)-Ia", "result": 21.5, "unit": "µM"}]}
{"compound": "CC(C)(C)n1nc(Cc2cccc3ccccc23)c2c(N)ncnc21", "note": "[Compound 1-NM-PP1]", "values": [{"measurement": "Rescue activity of kanamycin A", "setting": "[3]", "result": "demonstrated rescue activity of kanamycin A"}, {"measurement": "Ki", "setting": "APH(3’)-Ia", "result": 34.4, "unit": "µM"}]}
{"compound": "O=C(O)c1cc(NC2CC2)ncc1Cl", "note": "[Compound 36]", "values": [{"measurement": "ΔTm at 500 µM", "setting": "APH(2”)-IVa [4]", "result": 2.69, "unit": "°C"}, {"measurement": "kss", "setting": "APH(2”)-IVa [5]; [36] = 20 µM, [MgATP] 0.1 mM", "result": 0.130, "unit": "s⁻¹"}, {"measurement": "kss", "setting": "APH(2”)-IVa [5]; [36] = 20 µM, [MgATP] 0.2 mM", "result": 0.200, "unit": "s⁻¹"}, {"measurement": "kss", "setting": "APH(2”)-IVa [5]; [36] = 20 µM, [MgATP] 0.3 mM", "result": 0.240, "unit": "s⁻¹"}, {"measurement": "kss", "setting": "APH(2”)-IVa [5]; [36] = 20 µM, [MgATP] 0.4 mM", "result": 0.278, "unit": "s⁻¹"}, {"measurement": "kss", "setting": "APH(2”)-IVa [5]; [36] = 50 µM, [MgATP] 0.1 mM", "result": 0.097, "unit": "s⁻¹"}, {"measurement": "kss", "setting": "APH(2”)-IVa [5]; [36] = 50 µM, [MgATP] 0.2 mM", "result": 0.138, "unit": "s⁻¹"}, {"measurement": "kss", "setting": "APH(2”)-IVa [5]; [36] = 50 µM, [MgATP] 0.3 mM", "result": 0.175, "unit": "s⁻¹"}, {"measurement": "kss", "setting": "APH(2”)-IVa [5]; [36] = 50 µM, [MgATP] 0.4 mM", "result": 0.207, "unit": "s⁻¹"}, {"measurement": "kss", "setting": "APH(2”)-IVa [5]; [36] = 100 µM, [MgATP] 0.1 mM", "result": 0.067, "unit": "s⁻¹"}, {"measurement": "kss", "setting": "APH(2”)-IVa [5]; [36] = 100 µM, [MgATP] 0.2 mM", "result": 0.101, "unit": "s⁻¹"}, {"measurement": "kss", "setting": "APH(2”)-IVa [5]; [36] = 100 µM, [MgATP] 0.3 mM", "result": 0.133, "unit": "s⁻¹"}, {"measurement": "kss", "setting": "APH(2”)-IVa [5]; [36] = 100 µM, [MgATP] 0.4 mM", "result": 0.156, "unit": "s⁻¹"}, {"measurement": "Ki", "setting": "APH(2”)-IVa [6]", "result": 18.2, "unit": "µM"}, {"measurement": "Kd", "setting": "APH(2”)-IVa [7]", "result": 37.8, "unit": "µM"}]}
{"compound": "O=c1c(O)c(-c2ccc(O)c(O)c2)oc2cc(O)cc(O)c12", "note": "[Quercetin, quercetin]", "values": [{"measurement": "Ki", "setting": "12 different APHs", "result": "0.07 to 25", "unit": "µM"}]}
{"compound": "COC[C@H]1OC(=O)c2coc3c2[C@@]1(C)C1=C(C3=O)[C@@H]2CCC(=O)[C@@]2(C)C[C@H]1OC(C)=O", "note": "[Wortmannin, wortmannin]", "values": [{"measurement": "Inhibition", "setting": "APH(2”)-Ib", "result": 90, "unit": "%"}, {"measurement": "Inhibition", "setting": "APH(3’)-IIIa [8]", "result": "did not affect"}]}
